Assay results published in patent EP4656178A1, “COSMETIC USE OF ATRACTYLODES LANCEA ROOT EXTRACT” (Provital, S.A., priority 2024, dated 2025).

Key:
Format in all cases: cell-based
[1] = test system: Human Dermal Fibroblasts; conditions: 6 h, 10 µM retinol or 0.05 mg/ml ALRE
Procedure: To better understand the cellular pathways and processes that were modulated by the ALRE in human dermal fibroblasts, and its relevance with respect to retinol, a comprehensive and comparative assessment of gene expression by transcriptome analysis was conducted.
Three biological triplicates of Human Dermal Fibroblasts (HDF; ZenBio Inc., Research Triangle Park, NC, USA) were stimulated for 6 h with either 10 µM retinol or 0.05 mg/ml ALRE. RNA was extracted with the TRIzol® Plus RNA Purification Kit, including DNase I treatment step, according to manufacturer's instructions. RNA quality and quantity were inspected by spectrophotometric measurement using a NanoDrop™ One spectrophotometer (Thermo Fisher Scientific, Pittsburgh, PA, USA).
Messenger RNA was purified from total RNA using poly-T oligo-attached magnetic beads. After fragmentation, the first strand cDNA was synthesized using random hexamer primers, followed by the second strand cDNA synthesis using either dUTP for directional library or dTTP for non-directional library. For the non-directional library, it was ready after end repair, A-tailing, adapter ligation, size selection, amplification, and purification. For the directional library, it was ready after end repair, A-tailing, adapter ligation, size selection, USER enzyme digestion, amplification, and purification . The library was checked with Qubit and real-time PCR for quantification and bioanalyzer for size distribution detection. Quantified libraries were pooled and sequenced (Paired-end 150 bp) on Illumina platforms, according to effective library concentration and data amount.
Obtained data were studied by bioinformatic analysis as disclosed, for example, in Liao et al, featureCounts: an efficient general purpose program for assigning sequence reads to genomic features, Bioinformatics, 2014 ,30(7), 923-30, Mortazavi et al., Mapping and quantifying mammalian transcriptomes by RNA-Seq, Nature Methods, 2008, 5(7), 621-628, and Robinson et al., edgeR: a Bioconductor package for differential expression analysis of digital gene expression data, Bioinformatics, 2010, 26(1), 139-140.
Genes involved in the following categories were studied: • 2.1.- Retinoid binding, metabolizing genes and lipid transport • 2.2.- Extracellular matrix • 2.3.- Inflammatory pathway

[2] = biological target: T1, human TRPV1 channel (Homo sapiens, UniProt Q8NER1); assay: TRPV1 irritation test: intracellular calcium influx (Fluo4-NW) in TRPV1-overexpressing HEK cells; conditions: 1-hour incubation, normalized to 1 µM capsaicin (100%) and assay buffer (0%)
T1 construct: expressed in transfected cells
Text: In this TRPV1 test, compositions comprising different amounts of the A. lancea root extract (ALRE) were compared with retinol and tested on Human Embryonic Kidney (HEK) cells stably expressing this TRPV1 channel.
Cytosolic calcium influx was monitored using Fluo4-NW (Thermo Fisher Scientific) mix dye following manufacturer's instructions.
Activation of the TRPV1 receptor causes a Ca^+2 influx, and a direct relationship between fluorescence and TRPV1 receptor response can be established.
Fluorescence signal (AFU) was measured after excitation at 485 nm and emission at 520 nm using ClarioStar Plus microplate reader from BMG LABTECH.
The effect of tested compounds on intracellular Ca^+2 influx was studied 48 hours after cell seeding. The medium of TRPV1-overexpressing HEK cells was replaced by 90 µL/well of Fluo4-NW dye solution in assay buffer containing probenecid. […]
After 1 hour incubation at 37 °C, the plate was kept for 15 minutes at room temperature inside the fluorescence plate reader. After that, the program started with a stop in cycle 3 to add test compounds and capsazepine, 0.2% Triton X-100 (maximal signal control for dye loading) and assay buffer (minimal signal) and the fluorescence signal was recorded for 7 additional cycles. […] The signal was recorded until cycle 20. […]

[3] = test system: reconstructed human pigmented epidermis (RHPE); assay: Depigmentation test: melanin quantification by imaging; conditions: daily application day 9 to day 17, in comparison with Control, read-out: melanin reduction
Procedure: The depigmenting potential of the ALRE was assessed on reconstructed human pigmented epidermis (RHPE). Said cells were specifically generated for screening depigmenting agents or skin lightening products prior to human in vivo testing, as disclosed in Hall et al., Reconstructed human pigmented skin/epidermis models achieve epidermal pigmentation through melanocore transfer, Pigment Cell Melanoma Res., 2022, 35, 425-435. On day 9, the medium was replaced with a daily renewal, incorporating test compounds: the ALRE at concentrations of 0.2, 0.1, and 0.05 mg/ml, comparing its effect with 10 µM Retinol. In this assessment, […] DMSO was used as a negative control and 250 µM Kojic acid as a positive control. Images for melanin evaluation were captured on day 17 using Leica EZ4 W stereo microscope (Leica Microsystems, Wetzlar, Germany) and quantified as follows: all imaging processing steps were performed with the imaging software Fiji/lmageJ v 1.52n (Schindelin et al., Fiji - an Open Source platform for biological image analysis, Nat. Methods, 2012, 9(7), doi:10-1038). […] Statistical differences were determined by two-way ANOVA using R version 4.3.2 (R: A Language and Environment for Statistical Computing, n.d.). […]

[4] = vs non-treated human fibroblast

T1 sequence (Q8NER1 whole entry): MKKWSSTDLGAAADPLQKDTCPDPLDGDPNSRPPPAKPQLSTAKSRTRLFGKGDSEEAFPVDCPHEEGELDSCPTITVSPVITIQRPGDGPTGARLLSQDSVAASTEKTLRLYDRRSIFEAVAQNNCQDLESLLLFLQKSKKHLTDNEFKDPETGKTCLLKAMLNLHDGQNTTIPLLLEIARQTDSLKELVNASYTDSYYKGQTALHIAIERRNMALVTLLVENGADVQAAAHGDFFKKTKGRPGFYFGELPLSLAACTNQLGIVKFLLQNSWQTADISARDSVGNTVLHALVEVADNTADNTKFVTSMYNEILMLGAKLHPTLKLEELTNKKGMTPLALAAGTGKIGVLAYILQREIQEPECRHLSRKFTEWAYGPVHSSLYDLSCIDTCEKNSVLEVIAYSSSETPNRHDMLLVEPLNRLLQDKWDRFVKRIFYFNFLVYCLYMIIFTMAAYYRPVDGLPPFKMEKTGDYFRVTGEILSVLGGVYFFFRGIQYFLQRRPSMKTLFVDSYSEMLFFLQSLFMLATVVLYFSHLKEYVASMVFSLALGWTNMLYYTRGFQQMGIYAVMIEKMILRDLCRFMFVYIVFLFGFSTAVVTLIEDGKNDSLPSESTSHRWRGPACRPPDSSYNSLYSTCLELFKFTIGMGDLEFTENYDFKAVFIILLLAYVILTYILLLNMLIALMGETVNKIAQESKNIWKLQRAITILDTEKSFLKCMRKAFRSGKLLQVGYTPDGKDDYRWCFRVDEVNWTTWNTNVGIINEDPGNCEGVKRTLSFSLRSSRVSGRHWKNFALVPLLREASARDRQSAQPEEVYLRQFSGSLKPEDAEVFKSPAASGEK

SMILES | MMP1 gene expression [1, 4] | MMP12 gene expression [1, 4] | TIMP1 gene expression [1, 4] | TIMP3 gene expression [1, 4] | gene expression associated with crucial ECM proteins ([1]; vs non-treated human fibroblast (100%)) | intracellular calcium increase ([2]; retinol 50 µM) | intracellular calcium increase ([2]; retinol 100 µM) | inhibition at 10 µM ([3]; 10 µM retinol) | inhibition at 250 µM ([3]; 250 µM kojic acid)
CC1=C(/C=C/C(C)=C/C=C/C(C)=C/CO)C(C)(C)CCC1 [retinol] | elevation | elevation | significantly upregulated | significantly upregulated | comparable modulation of gene expression | significant rise | significant rise | 76% | –
O=c1cc(CO)occ1O [kojic acid] | – | – | – | – | – | – | – | – | 58%
